Test results from patent US20250147039A1, “Compounds for complexation of rare earth elements and/or s-, p-, d- block metals, their coordination compounds, peptide conjugates, method of their preparation and use thereof” (USTAV ORGANICKE CHEMIE A BIOCHEMIE AV CR V.V.I., priority 2021, published 2025).
One block for each compound: values may come before it.

Legend:
[1] = Formation of 1,5-cz-[M(Lig)] from Lig and M^III ions (metal dependent click-zip) (Charts 4, 5); type: physicochemical; conditions: MOPS/NaOH buffer pH 7.0; for conversion to 1,5-cz-[M(Lig)], Y^III / conversion to 1,5-cz-[M(Lig)], Sc^III: TD728, TD827 in 50% i-PrOH; for conversion to 1,5-cz-[M(Lig)], Y^III: TD714 sum of two diastereoisomers
[2] = Formation of 1,5-cz-[Ln(Lig)] from Lig and Ln^III ions (metal dependent click-zip), MOPS/NaOH buffer pH 7.0, analytical HPLC (Charts 1, 2); conditions: MOPS/NaOH buffer pH 7.0

- conversion to 1,5-cz-[Ln(Lig)] with hydrolysed group in the side chain, Y^III ([1]; 1 week at 80° C.): 90%
- conversion to 1,5-cz-[M(Lig)], Y^III ([1]; 1 week at 80° C.): 0%
- conversion to 1,5-cz-[Ln(Lig)] with hydrolysed group in the side chain, Y^III ([1]; 1 hour at 80° C.): 17%
- conversion to 1,5-cz-[M(Lig)], Y^III ([1]; 1 hour at 80° C.): 1%
- conversion to 1,5-cz-[Ln(Lig)] with hydrolysed group in the side chain, Lu^III ([2]; after 1 week at 80° C.): 91%
- conversion to 1,5-cz-[Ln(Lig)], Lu^III ([2]; after 1 week at 80° C.): 0%
- conversion to 1,5-cz-[Ln(Lig)] with hydrolysed group in the side chain, Lu^III ([2]; after 1 hour at 80° C.): 61%
- conversion to 1,5-cz-[Ln(Lig)], Lu^III ([2]; after 1 hour at 80° C.): 3%
- conversion to 1,5-cz-[Ln(Lig)] with hydrolysed group in the side chain, Sm^III ([2]; after 1 week at 80° C.): 85%
- conversion to 1,5-cz-[Ln(Lig)], Sm^III ([2]; after 1 week at 80° C.): 0%
- conversion to 1,5-cz-[Ln(Lig)] with hydrolysed group in the side chain, Sm^III ([2]; after 1 hour at 80° C.): 3%
- conversion to 1,5-cz-[Ln(Lig)], Sm^III ([2]; after 1 hour at 80° C.): 0%
- conversion to 1,5-cz-[Ln(Lig)] with hydrolysed group in the side chain, Tb^III ([2]; after 1 week at 80° C.): 89%
- conversion to 1,5-cz-[Ln(Lig)], Tb^III ([2]; after 1 week at 80° C.): 0%
- conversion to 1,5-cz-[Ln(Lig)] with hydrolysed group in the side chain, Tb^III ([2]; after 1 hour at 80° C.): 9%
- conversion to 1,5-cz-[Ln(Lig)], Tb^III ([2]; after 1 hour at 80° C.): 0%
SMILES: C#Cc1cccc(CN2CCN(CC(=O)O)CCN(Cc3cc(C(=O)OC(C)(C)C)cc(CN=[N+]=[N-])n3)CCN(CC(=O)O)CC2)n1 [TD1160]

- conversion to 1,5-cz-[M(Lig)], Sc^III ([1]; 1 week at 80° C.): 31%
- conversion to 1,5-cz-[M(Lig)], Y^III ([1]; 1 week at 80° C.): 95%
- conversion to 1,5-cz-[M(Lig)], Sc^III ([1]; 1 hour at 80° C.): 6%
- conversion to 1,5-cz-[M(Lig)], Y^III ([1]; 1 hour at 80° C.): 30%
- conversion to 1,5-cz-[Ln(Lig)], Ce^III ([2]; after 1 week at 80° C.): 60%
- conversion to 1,5-cz-[Ln(Lig)], Ce^III ([2]; after 1 hour at 80° C.): 0%
- conversion to 1,5-cz-[Ln(Lig)], Dy^III ([2]; after 1 week at 80° C.): 96%
- conversion to 1,5-cz-[Ln(Lig)], Dy^III ([2]; after 1 hour at 80° C.): 20%
- conversion to 1,5-cz-[Ln(Lig)], Er^III ([2]; after 1 week at 80° C.): 96%
- conversion to 1,5-cz-[Ln(Lig)], Er^III ([2]; after 1 hour at 80° C.): 46%
- conversion to 1,5-cz-[Ln(Lig)], Eu^III ([2]; after 1 week at 80° C.): 93%
- conversion to 1,5-cz-[Ln(Lig)], Eu^III ([2]; after 1 hour at 80° C.): 6%
- conversion to 1,5-cz-[Ln(Lig)], Gd^III ([2]; after 1 week at 80° C.): 91%
- conversion to 1,5-cz-[Ln(Lig)], Gd^III ([2]; after 1 hour at 80° C.): 7%
- conversion to 1,5-cz-[Ln(Lig)], Ho^III ([2]; after 1 week at 80° C.): 96%
- conversion to 1,5-cz-[Ln(Lig)], Ho^III ([2]; after 1 hour at 80° C.): 31%
- conversion to 1,5-cz-[Ln(Lig)], La^III ([2]; after 1 week at 80° C.): 73%
- conversion to 1,5-cz-[Ln(Lig)], La^III ([2]; after 1 hour at 80° C.): 0%
- conversion to 1,5-cz-[Ln(Lig)], Lu^III ([2]; after 1 week at 80° C.): 96%
- conversion to 1,5-cz-[Ln(Lig)], Lu^III ([2]; after 1 hour at 80° C.): 85%
- conversion to 1,5-cz-[Ln(Lig)], Nd^III ([2]; after 1 week at 80° C.): 85%
- conversion to 1,5-cz-[Ln(Lig)], Nd^III ([2]; after 1 hour at 80° C.): 2%
- conversion to 1,5-cz-[Ln(Lig)], Pr^III ([2]; after 1 week at 80° C.): 82%
- conversion to 1,5-cz-[Ln(Lig)], Pr^III ([2]; after 1 hour at 80° C.): 1%
- conversion to 1,5-cz-[Ln(Lig)], Sm^III ([2]; after 1 week at 80° C.): 92%
- conversion to 1,5-cz-[Ln(Lig)], Sm^III ([2]; after 1 hour at 80° C.): 5%
- conversion to 1,5-cz-[Ln(Lig)], Tb^III ([2]; after 1 week at 80° C.): 94%
- conversion to 1,5-cz-[Ln(Lig)], Tb^III ([2]; after 1 hour at 80° C.): 14%
- conversion to 1,5-cz-[Ln(Lig)], Tm^III ([2]; after 1 week at 80° C.): 96%
- conversion to 1,5-cz-[Ln(Lig)], Tm^III ([2]; after 1 hour at 80° C.): 63%
- conversion to 1,5-cz-[Ln(Lig)], Yb^III ([2]; after 1 week at 80° C.): 97%
- conversion to 1,5-cz-[Ln(Lig)], Yb^III ([2]; after 1 hour at 80° C.): 75%
SMILES: C#Cc1cccc(CN2CCN(CC(=O)O)CCN(Cc3cc(N(C)C)cc(CN=[N+]=[N-])n3)CCN(CC(=O)O)CC2)n1 [TD1176]
